Measurements taken from ChEMBL document CHEMBL1201862, “PubChem BioAssay data set” (2004).
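Where inhibition never reached the appropriate level, the endpoint shown equals the highest concentration tested. Otherwise, values were interpolated linearly from a five-concentration, 48-hour dose response in 96-well plates. GI50 is the concentration that inhibits growth by half.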 Calls of active or inactive are those of the source. Rule as the data show it: active = GI50 up to about 1.1 µM and inactive = higher. Residues, ends and D or L forms follow the SMILES beside them. *: point of attachment. Cbz = O=C(OCc1ccccc1)*; Boc = CC(C)(C)OC(=O)*; OSu = O=C1CCC(=O)N1O*; Bn = c1ccc(C*)cc1

Legend:
Assay in all cases: NCI tumour cell line growth inhibition, 48 h
786-0 = test system: 786-0
A498 = test system: A498
A549 = test system: A549
CCRF-CEM = test system: CCRF-CEM
DU-145 = test system: DU-145
HCT-116 = test system: HCT-116
HOP-62 = test system: HOP-62
LOX IMVI = test system: LOX IMVI
Malme-3M = test system: Malme-3M
NCI-H226 = test system: NCI-H226
NCI-H23 = test system: NCI-H23
OVCAR-3 = test system: OVCAR-3
RPMI-8226 = test system: RPMI-8226
SF-268 = test system: SF-268
SF-295 = test system: SF-295
SK-MEL-2 = test system: SK-MEL-2
SN12C = test system: SN12C
SR = test system: SR
UACC-62 = test system: UACC-62
Hs-578T = test system: Hs-578T

| SMILES | GI50 (786-0) | GI50 (A498) | GI50 (A549) | GI50 (CCRF-CEM) | GI50 (DU-145) | GI50 (HCT-116) | GI50 (HOP-62) | GI50 (LOX IMVI) | GI50 (Malme-3M) | GI50 (NCI-H226) | GI50 (NCI-H23) | GI50 (OVCAR-3) | GI50 (RPMI-8226) | GI50 (SF-268) | GI50 (SF-295) | GI50 (SK-MEL-2) | GI50 (SN12C) | GI50 (SR) | GI50 (UACC-62) | GI50 (Hs-578T) |
| --- | --- | --- | --- | --- | --- | --- | --- | --- | --- | --- | --- | --- | --- | --- | --- | --- | --- | --- | --- | --- |
| CC(=O)Nc1ccc(/C=C/C(=O)N2CC(CCl)c3c2cc(N)c2ccccc32)cc1 (configuration not stated) | < 0.005 µM (active) | < 0.005 µM (active) | < 0.005 µM (active) | < 0.005 µM (active) | < 0.005 µM (active) | < 0.005 µM (active) | < 0.005 µM (active) | < 0.005 µM (active) | < 0.005 µM (active) | < 0.005 µM (active) | < 0.005 µM (active) | 0.0127 µM (active) | 0.0149 µM (active) | < 0.005 µM (active) | < 0.005 µM (active) | < 0.005 µM (active) | < 0.005 µM (active) | < 0.005 µM (active) | < 0.005 µM (active) | – |
| c1cnc(N2CCN(Cc3c[nH]c4ccccc34)CC2)nc1 | 14.3 µM (inactive) | 28.7 µM (inactive) | 80.4 µM (inactive) | 50.1 µM (inactive) | 23.9 µM (inactive) | 26.2 µM (inactive) | 56.1 µM (inactive) | 45.8 µM (inactive) | 43.4 µM (inactive) | 58.7 µM (inactive) | 93.5 µM (inactive) | 52.2 µM (inactive) | 11.7 µM (inactive) | 74.5 µM (inactive) | 38.3 µM (inactive) | 13.3 µM (inactive) | 42.1 µM (inactive) | – | 45.4 µM (inactive) | > 100 µM (inactive) |
| Fc1ccc(C(OCCN2CCC3CCC(C2)N3C/C=C/c2cccnc2)c2ccc(F)cc2)cc1 (configuration not stated) | 5.27 µM (inactive) | 14.3 µM (inactive) | 11.8 µM (inactive) | 4.11 µM (inactive) | 15.8 µM (inactive) | 5.93 µM (inactive) | 14.2 µM (inactive) | 13.1 µM (inactive) | 4.08 µM (inactive) | 12.1 µM (inactive) | 12.8 µM (inactive) | 12.8 µM (inactive) | 3.43 µM (inactive) | 12.8 µM (inactive) | 9.23 µM (inactive) | 13.3 µM (inactive) | 13.1 µM (inactive) | – | 12.3 µM (inactive) | 12 µM (inactive) |
| COc1ccc(/C=C2\N=C3N(Cc4ccccc4)C=C(N)N3C2=O)cc1 | 52.7 µM (inactive) | 88.1 µM (inactive) | > 100 µM (inactive) | 89.5 µM (inactive) | > 100 µM (inactive) | > 100 µM (inactive) | 39.3 µM (inactive) | > 100 µM (inactive) | > 100 µM (inactive) | 55 µM (inactive) | > 100 µM (inactive) | > 100 µM (inactive) | – | > 100 µM (inactive) | 61.2 µM (inactive) | > 100 µM (inactive) | > 100 µM (inactive) | – | > 100 µM (inactive) | 28.8 µM (inactive) |
| COc1ccc(/C=N/n2c(-c3ccccc3)n[nH]c2=O)cc1 | > 100 µM (inactive) | 25.3 µM (inactive) | 95.1 µM (inactive) | > 100 µM (inactive) | > 100 µM (inactive) | 74.5 µM (inactive) | > 100 µM (inactive) | – | > 100 µM (inactive) | > 100 µM (inactive) | > 100 µM (inactive) | > 100 µM (inactive) | > 100 µM (inactive) | > 100 µM (inactive) | > 100 µM (inactive) | > 100 µM (inactive) | > 100 µM (inactive) | – | > 100 µM (inactive) | 50.1 µM (inactive) |
| CC[N+]1(C)CCC(O)(/C=C/c2ccc(OC)cc2)C(C(=O)/C=C/c2ccc(OC)cc2)C1 (configuration not stated) | 3.13 µM (inactive) | 16.7 µM (inactive) | 23.3 µM (inactive) | 0.548 µM (active) | 14.2 µM (inactive) | 12.7 µM (inactive) | 19.3 µM (inactive) | 2.64 µM (inactive) | 14.4 µM (inactive) | 28 µM (inactive) | 16.2 µM (inactive) | 19.7 µM (inactive) | 0.252 µM (active) | 10.6 µM (inactive) | 18.6 µM (inactive) | 19 µM (inactive) | 21.3 µM (inactive) | – | 17.8 µM (inactive) | 11.7 µM (inactive) |
| CC(O)CNC(=O)Nc1c(C(F)(F)F)cc(-c2ccccc2)[nH]c1=O (configuration not stated) | > 100 µM (inactive) | > 100 µM (inactive) | > 100 µM (inactive) | 13.8 µM (inactive) | > 100 µM (inactive) | > 100 µM (inactive) | > 100 µM (inactive) | > 100 µM (inactive) | > 100 µM (inactive) | > 100 µM (inactive) | > 100 µM (inactive) | > 100 µM (inactive) | – | > 100 µM (inactive) | > 100 µM (inactive) | > 100 µM (inactive) | > 100 µM (inactive) | – | > 100 µM (inactive) | > 100 µM (inactive) |
| COc1ccc2c(c1)CN1C(=N2)CSC1c1ccccc1Cl (configuration not stated) | 17.9 µM (inactive) | – | 25.7 µM (inactive) | – | – | 17.5 µM (inactive) | 31.6 µM (inactive) | 15 µM (inactive) | 19.1 µM (inactive) | 12.6 µM (inactive) | 1.66 µM (inactive) | – | 12.1 µM (inactive) | 24 µM (inactive) | 24.7 µM (inactive) | 17.7 µM (inactive) | 19.1 µM (inactive) | 7.76 µM (inactive) | 17.6 µM (inactive) | 27.9 µM (inactive) |
| C[C@H]1S[C@H](c2c(F)cccc2F)n2c1nc1ccccc12 | 64.9 µM (inactive) | – | 47.1 µM (inactive) | 40.5 µM (inactive) | > 100 µM (inactive) | 34.6 µM (inactive) | > 100 µM (inactive) | – | 41.5 µM (inactive) | > 100 µM (inactive) | 34.8 µM (inactive) | 24.2 µM (inactive) | 37.5 µM (inactive) | 60.5 µM (inactive) | 39.1 µM (inactive) | 15.1 µM (inactive) | 74.1 µM (inactive) | – | 63.1 µM (inactive) | 88.7 µM (inactive) |
| NS(=O)(=O)c1ccc(NCc2nc3ccccc3[nH]2)cc1 | > 100 µM (inactive) | > 100 µM (inactive) | > 100 µM (inactive) | – | > 100 µM (inactive) | > 100 µM (inactive) | > 100 µM (inactive) | > 100 µM (inactive) | > 100 µM (inactive) | > 100 µM (inactive) | > 100 µM (inactive) | > 100 µM (inactive) | – | > 100 µM (inactive) | > 100 µM (inactive) | > 100 µM (inactive) | > 100 µM (inactive) | – | > 100 µM (inactive) | > 100 µM (inactive) |
| CC1(C)CC(=O)c2c(nc3ccc4ccccc4c3c2-c2ccc(NC(=O)CCC(=O)Nc3ccc(-c4c5c(nc6ccc7ccccc7c46)CC(C)(C)CC5=O)cc3)cc2)C1 | > 100 µM (inactive) | – | > 100 µM (inactive) | > 100 µM (inactive) | > 100 µM (inactive) | > 100 µM (inactive) | > 100 µM (inactive) | > 100 µM (inactive) | – | > 100 µM (inactive) | – | > 100 µM (inactive) | > 100 µM (inactive) | > 100 µM (inactive) | > 100 µM (inactive) | > 100 µM (inactive) | > 100 µM (inactive) | > 100 µM (inactive) | – | > 100 µM (inactive) |
| c1ccc([P+](c2ccccc2)(c2ccccc2)C2c3ccccc3-c3ccccc32)cc1 | 3.09 µM (inactive) | 1.75 µM (inactive) | 2.88 µM (inactive) | 1.89 µM (inactive) | 2.87 µM (inactive) | 0.473 µM (active) | 1.5 µM (inactive) | 1.32 µM (inactive) | 2.35 µM (inactive) | 1.95 µM (inactive) | 1.9 µM (inactive) | 1.87 µM (inactive) | 1.35 µM (inactive) | 2.77 µM (inactive) | 1.75 µM (inactive) | 1.71 µM (inactive) | 2.36 µM (inactive) | – | 1.26 µM (inactive) | 2.21 µM (inactive) |
| C[C@]12CC[C@H](O)CC1=CC[C@@H]1[C@@H]2CC[C@]2(C)/C(=N/OCCN3CCCC3)CC[C@@H]12 | 18.1 µM (inactive) | 16 µM (inactive) | – | – | – | 14.9 µM (inactive) | 21.3 µM (inactive) | 19.1 µM (inactive) | 14.1 µM (inactive) | 14.5 µM (inactive) | 14.1 µM (inactive) | 16.5 µM (inactive) | 15.2 µM (inactive) | 53.2 µM (inactive) | 19.4 µM (inactive) | 21 µM (inactive) | 29 µM (inactive) | 14.8 µM (inactive) | 15.5 µM (inactive) | 22.9 µM (inactive) |
| C[C@@H](CC(O)C(O)C(C)(C)O)C1CCC23CC12CCC1[C@@]2(C)CCC(O)C(C)(C)C2CC(OC2OC(CO)C(O)C(O)C2O)[C@]13C (some centres not stated) | > 10 µM (inactive) | > 10 µM (inactive) | > 10 µM (inactive) | > 10 µM (inactive) | > 10 µM (inactive) | > 10 µM (inactive) | > 10 µM (inactive) | > 10 µM (inactive) | > 10 µM (inactive) | > 10 µM (inactive) | > 10 µM (inactive) | > 10 µM (inactive) | > 10 µM (inactive) | > 10 µM (inactive) | > 10 µM (inactive) | > 10 µM (inactive) | > 10 µM (inactive) | – | > 10 µM (inactive) | > 10 µM (inactive) |
| CC(C)(C)OC(=O)NC(Cc1ccc(OCc2ccccc2)cc1)C(=O)NC(CCCCNC(=O)OCc1ccccc1)C(=O)NC(CCCCNC(=O)OCc1ccccc1)C(=O)ON1C(=O)CCC1=O (configuration not stated) (Boc-Tyr(Bn)-Lys(Cbz)-Lys(Cbz)-OSu; configuration not given here) | 20.8 µM (inactive) | – | > 100 µM (inactive) | 66.2 µM (inactive) | 88.5 µM (inactive) | 24.9 µM (inactive) | > 100 µM (inactive) | – | 54.3 µM (inactive) | – | 28.6 µM (inactive) | – | > 100 µM (inactive) | 40.2 µM (inactive) | 24 µM (inactive) | 38.4 µM (inactive) | > 10 µM (inactive) | > 100 µM (inactive) | 15.7 µM (inactive) | 16.4 µM (inactive) |
